We go through one molecule from ChEMBL document CHEMBL6127065, “Design and Synthesis of c-Met and HDAC Dual Inhibitors for the Treatment of Breast Cancer” (ACS Med Chem Lett, 2024).

The source made the active and inactive calls. No cut-off for these calls is given here. Bounds are passed on as bounds.

Data set [1] deals with MDA-MB-231. Put plainly: Anti-migration activity in human MDA-MB-231 cells assessed as inhibition of cell invasion incubated for 72 hrs by Transwell assay. In kind it is functional, cell-based. Particulars: dose 1-25 µM.
The test system of data set [2] is MDA-MB-231. Put plainly: Induction of apoptosis in human MDA-MB-231 cells assessed as viable cells at 5 uM incubated for 48 hrs by AnnexinV-FITC/PI staining based flow cytometry (reference value: 91.22 to 92.84%). In kind it is functional. The conditions noted are these: read-out: Activity.
Data set [3] relates to MDA-MB-453. Put plainly: Antiproliferative activity against human MDA-MB-453 cells assessed as reduction in cell growth incubated for 72 hrs by MTT assay. The conditions noted are these: MDA-MB-453, 72 h.
Data set [4] relates to MDA-MB-231. Put plainly: Induction of cell cycle arrest in human MDA-MB-231 cells assessed as accumulation of cells at G0/G1 phase at 1 uM incubated for 48 hrs by PI staining based flow cytometry (reference value: 55.36 to 55.82%). In kind it is functional. In general terms: A flow cytometer gives signals particle by particle.
The subject of data set [5] is MDA-MB-231. Put plainly: Induction of cell cycle arrest in human MDA-MB-231 cells assessed as accumulation of cells at S phase at 2.5 uM incubated for 48 hrs by PI staining based flow cytometry (reference value: 12.56 to 14.76%). In kind it is functional.
The test system of data set [6] is MDA-MB-231. Put plainly: Antiproliferative activity against human MDA-MB-231 cells assessed as reduction in cell growth incubated for 72 hrs by MTT assay. The conditions noted are these: MDA-MB-231, 72 h.
The nature of data set [7]: Cytotoxicity against human MCF-10A cells assessed as reduction in cell viability incubated for 72 hrs by MTT assay. In kind it is toxicity, cell-based. A general note: Tetrazolium dyes change colour on reduction, which living cells bring about.
Data set [8] deals with MDA-MB-231. Put plainly: Induction of cell cycle arrest in human MDA-MB-231 cells assessed as accumulation of cells at G0/G1 phase at 10 uM incubated for 48 hrs by PI staining based flow cytometry (reference value: 55.36 to 55.82%). In kind it is functional.
Data set [9] concerns MDA-MB-231. Put plainly: Induction of cell cycle arrest in human MDA-MB-231 cells assessed as accumulation of cells at G2/M phase at 25 uM incubated for 48 hrs by PI staining based flow cytometry (reference value: 29.42 to 32.08%). In kind it is functional.
The subject of data set [10] is MDA-MB-231. Put plainly: Induction of cell cycle arrest in human MDA-MB-231 cells assessed as accumulation of cells at S phase at 10 uM incubated for 48 hrs by PI staining based flow cytometry (reference value: 12.56 to 14.76%). In kind it is functional.
For data set [11], the system named is MDA-MB-231. Put plainly: Induction of apoptosis in human MDA-MB-231 cells assessed as upregulation of cleaved caspase 3 level at 1 to 25 uM incubated for 48 hrs by western blot analysis. In kind it is functional, cell-based. Particulars: dose 1-25 µM.
The test system of data set [12] is MDA-MB-468. Put plainly: Antiproliferative activity against human MDA-MB-468 cells assessed as reduction in cell growth incubated for 72 hrs by MTT assay. The conditions noted are these: MDA-MB-468, 72 h.

A word on the IC50: it is the concentration that inhibits the measured activity by half. For `CC(c1ccc2ncccc2c1)n1nnc2ncc(N3CCN(Cc4ccc(/C=C/C(=O)Nc5ccccc5N)cc4)CC3)nc21` (configuration not stated), the Activity entry in [1] was “Dose-Dependent Effect”; in [4], 65.34%; in data set [5], 9.53%; in [8] it was 75.71%; in data set [9] it was 10.57%; in data set [10], 8.21%. For the same molecule, in [2], the viability at 5 µM was determined as 85.5%. The IC50 in data set [3] is 5.47 µM; in data set [6] it was 3.57 µM; in [12], 1.25 µM. For the same molecule, the IC50 at 72 h in [7] was over 25 µM. In addition, the outcome in data set [11] was Active.
